Where two headings read alike, the source gives them in different places.
Columns and labels:
[1] = test system: 2-HG in HT1080 tumor tissues; test: Detection of 2-HG in HT1080 tumor tissues of nude mice; assay type: in vivo; conditions: Mus musculus, HT-1080, sc, subcutaneous HT1080, 20 mg/kg
Experimental: Nude mice were inoculated subcutaneously with 1×10^6 HT1080 cells. When the tumor volume reached 100-150 mm^3, the mice were randomly grouped into solvent control group and compounds 1, 70, 79, 85, 96, 139, 157 and LY-3410738 20 mg/kg groups. The tumors were collected three days and seven days after continuous administration, weighed, digested with a digestion solution and then homogenized. The level of 2-HG in the tumor tissues were determined by LC-MS-MS. The percentage inhibition of compounds on 2-HG in tumor tissues was calculated as compared with the control.

IDH R132C = target: T1, IDH R132C (Homo sapiens, UniProt O75874, R132C); test: Detection of 2-HG in supernatant of U87-IDH R132C cells; assay type: cell-based; conditions: 72 h, LC-MS-MS, vs control; for inhibition at 0.001 µM: read-out: Inhibition rate of compounds on 2-HG in the supernatant of U87-IDH R132C cells, 1 nM; for inhibition at 0.01 µM: read-out: Inhibition rate of compounds on 2-HG in the supernatant of U87-IDH R132C cells, 10 nM; for inhibition at 0.1 µM: read-out: Inhibition rate of compounds on 2-HG in the supernatant of U87-IDH R132C cells, 100 nM
T1 construct: expressed in transfected cells; host or cells: U87 cells
Experimental: U87 cells overexpressing the IDH R132C mutation were seeded in a 48-well plate at 50,000 cells/well. After the cells were incubated overnight for adhesion, the supernatant was removed. The cell culture media containing serially diluted compounds were added, and the cells were incubated for 72 h. After 72 h, the cultures were collected and diluted 10-fold with water, and acetonitrile was added to extract the metabolites. The 2-HG content in the cultures was analyzed by LC-MS-MS, and the percentage inhibition of compounds on 2-HG in the supernatant was calculated as compared with the control.

[2] = 72 h, three days of continuous administration, read-out: Inhibition rate of compounds on 2-HG in HT1080 tumor tissues, 3 days
[3] = 168 h, seven days of continuous administration, read-out: Inhibition rate of compounds on 2-HG in HT1080 tumor tissues, 7 days

T1 sequence (O75874 whole entry R132C): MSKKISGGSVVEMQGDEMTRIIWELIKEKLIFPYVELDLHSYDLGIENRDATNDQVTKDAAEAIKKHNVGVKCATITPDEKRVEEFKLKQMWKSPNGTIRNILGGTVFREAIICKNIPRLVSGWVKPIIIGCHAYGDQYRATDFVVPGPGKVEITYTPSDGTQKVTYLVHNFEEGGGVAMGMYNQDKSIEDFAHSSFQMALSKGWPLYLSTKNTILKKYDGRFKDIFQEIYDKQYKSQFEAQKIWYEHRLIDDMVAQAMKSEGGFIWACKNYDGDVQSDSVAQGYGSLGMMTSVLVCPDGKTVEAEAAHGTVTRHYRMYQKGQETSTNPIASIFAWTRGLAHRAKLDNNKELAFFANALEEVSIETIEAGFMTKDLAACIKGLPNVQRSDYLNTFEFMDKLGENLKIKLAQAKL

| Compound | inhibition in vivo at 20 mg/kg [1, 2] | inhibition in vivo at 20 mg/kg [1, 3] | inhibition at 0.001 µM (IDH R132C; 1 nM compound) | inhibition at 0.01 µM (IDH R132C; 10 nM compound) | inhibition at 0.1 µM (IDH R132C; 100 nM compound) | Inhibition rate of compounds on 2-HG in the supernatant of U87-IDH R132C cells, 1 nM (IDH R132C; 1 nM compound) | Inhibition rate of compounds on 2-HG in the supernatant of U87-IDH R132C cells, 10 nM (IDH R132C; 10 nM compound) | Inhibition rate of compounds on 2-HG in the supernatant of U87-IDH R132C cells, 100 nM (IDH R132C; 100 nM compound) |
| --- | --- | --- | --- | --- | --- | --- | --- | --- |
| C=CC(=O)NC1CCN(C(CC2CC2)c2ccc([C@H](C)Nc3ncc4cnc(=O)n(C(C)C)c4n3)cc2)CC1 (stereo partly shown) [Compound 96] | 29 ± 38% | 78 ± 4% | – | – | – | – | – | – |
| C=CC(=O)N1CCN(C(CC2CCC2)c2ccc([C@H](C)Nc3ncc4c(n3)N(CC)C(=O)OC4)cc2)CC1 (stereo partly drawn) [Compound 139, 7-(((1S)-1-(4-(1-(4-acryloylpiperazin-1-yl)-2-cyclobutylethyl)-phenyl)ethyl)amino)-1-ethyl-1,4-dihydro-2H-pyrimido[4,5-d][1,3]oxazin-2-one] | 57 ± 1.8% | 99 ± 0.4% | – | – | – | – | – | – |
| C=CC(=O)N1CCN(C(CC2CC2)c2ccc([C@H](C)Nc3ncc4c(n3)N(C(C)C)C(=O)NC4)cc2)CC1 (stereo partly shown) [Compound 79] | 50 ± 3% | 97 ± 1% | 30 to 60% | 60 to 90% | > 90% | – | – | – |
| C=CC(=O)N1CCN(C(CC23CC(C2)C3)c2ccc([C@H](C)Nc3ncc4c(n3)N(CC)C(=O)OC4)cc2)CC1 (stereo partly shown) [Compound 157] | 60 ± 8% | 90 ± 7% | 60 to 90% | > 90% | > 90% | – | – | – |
| C=CC(=O)N1CC2(C1)CN(C(CC1CC1)c1ccc([C@H](C)Nc3ncc4c(n3)N(CC)C(=O)OC4)cc1)C2 (stereo partly shown) [Compound 1] | 54 ± 18% | 95 ± 0.5% | 30 to 60% | > 90% | > 90% | – | – | – |
| C=CC(=O)N1CCN(C(CC)c2ccc([C@H](C)Nc3ncc4c(n3)N(C(C)C)C(=O)NC4)cc2)CC1 (stereo partly shown) [Compound 80] | – | – | 30 to 60% | 60 to 90% | > 90% | – | – | – |
| C=CC(=O)N1CCN(C(CC2CC2)c2ccc(C3(Nc4ncc5cnc(=O)n(C(C)C)c5n4)CC3)cc2)CC1 (stereo not shown) [Compound 106] | – | – | 30 to 60% | 60 to 90% | > 90% | – | – | – |
| C=CC(=O)N(C)C1CCN(C(CC2CC2)c2ccc(C3(Nc4ncc5c(n4)N(CC)C(=O)OC5)CC3)cc2)CC1 (stereo not shown) [Compound 29] | – | – | < 30% | 60 to 90% | > 90% | – | – | – |
| C=CC(=O)N(C)C1CCN(C(CC2CC2)c2ccc([C@H](C)Nc3ncc4c(n3)N(C(C)C)C(=O)OC4)cc2)CC1 (stereo partly shown) [Compound 24] | – | – | 30 to 60% | > 90% | > 90% | – | – | – |
| C=CC(=O)N1CCN([C@@H](CC2CC2)c2ccc([C@H](C)Nc3ncc4c(n3)N(CC)C(=O)OC4)cc2)CC1 [LY-3410738, reference compound] | 58 ± 11% | 88 ± 12% | 30 to 60% | > 90% | > 90% | – | – | – |
| C=CC(=O)N1CC2(C1)CN(C(CC1CCC1)c1ccc([C@H](C)Nc3ncc4c(n3)N(CC)C(=O)OC4)cc1)C2 (stereo partly shown) [Compound 63] | – | – | 30 to 60% | > 90% | > 90% | – | – | – |
| C=CC(=O)N1CCN(C(CC2CC2)c2ccc(C3(Nc4ncc5c(n4)N(C(C)C)C(=O)OC5)CC3)cc2)CC1 (stereo not shown) [Compound 148] | – | – | < 30% | 60 to 90% | > 90% | – | – | – |
| C=CC(=O)N1CCN(C(CC2CC2)c2ccc([C@H](C)Nc3ncc4c(n3)N(C(C)C)C(=O)OC4)cc2)CC1 (stereo partly shown) [Compound 147] | – | – | 60 to 90% | > 90% | > 90% | – | – | – |
| C=CC(=O)N1CCN(C(CC23CC(C2)C3)c2ccc([C@H](C)Nc3ncc4c(n3)N(CC)C(=O)NC4)cc2)CC1 (stereo partly shown) [Compound 70] | 62 ± 8% | 92 ± 5% | 60 to 90% | > 90% | > 90% | – | – | – |
| C=CC(=O)N1CC2(C1)CN(C(CC1CC1)c1ccc(C3(Nc4ncc5c(n4)N(C(C)C)C(=O)OC5)CC3)cc1)C2 (stereo not shown) [Compound 31] | – | – | < 30% | 60 to 90% | > 90% | – | – | – |
| C=CC(=O)N1CCN(C(CC2CCC2)c2ccc([C@H](C)Nc3ncc4cnc(=O)n(C(C)C)c4n3)cc2)CC1 (stereo partly shown) [Compound 125] | – | – | 30 to 60% | 60 to 90% | > 90% | – | – | – |
| C=CC(=O)N1CC2(C1)CN([C@@H](CC)c1ccc([C@H](C)Nc3ncc4c(n3)N(CC)C(=O)OC4)cc1)C2 [Compound 36-1] | – | – | 60 to 90% | > 90% | > 90% | – | – | – |
| C=CC(=O)N1CC2(C1)CN(C(CC1(C)CC1)c1ccc([C@H](C)Nc3ncc4c(n3)N(CC)C(=O)OC4)cc1)C2 (stereo partly shown) [Compound 65] | – | – | 30 to 60% | > 90% | > 90% | – | – | – |
| C=CC(=O)N1CCN([C@@H](CC)c2ccc([C@H](C)Nc3ncc4cnc(=O)n(CC)c4n3)cc2)CC1 [Compound 116-1] | – | – | 60 to 90% | > 90% | > 90% | – | – | – |
| C=CC(=O)N1CC2(C1)CN(C(CC)c1ccc([C@H](C)Nc3ncc4c(n3)N(C(C)C)C(=O)OC4)cc1)C2 (stereo partly shown) [Compound 46] | – | – | 60 to 90% | > 90% | > 90% | – | – | – |
| C=CC(=O)N1CCN(C(CC2(C)CC2)c2ccc([C@H](C)Nc3ncc4c(n3)N(CC)C(=O)OC4)cc2)CC1 (stereo partly shown) [Compound 156] | – | – | 60 to 90% | > 90% | > 90% | – | – | – |
| C=CC(=O)N1CCN(C(CC(C)C)c2ccc([C@H](C)Nc3ncc4cnc(=O)n(CC)c4n3)cc2)CC1 (stereo partly shown) [Compound 116] | – | – | 60 to 90% | > 90% | > 90% | – | – | – |
| C=CC(=O)N1CCN(C(CC(C)(C)C)c2ccc([C@H](C)Nc3ncc4cnc(=O)n(C(C)C)c4n3)cc2)CC1 (stereo partly shown) [Compound 124] | – | – | 30 to 60% | 60 to 90% | > 90% | – | – | – |
| C=CC(=O)N1CCN(C(CC2CC2)c2ccc([C@H](C)Nc3ncc4cnc(=O)n(C(C)C)c4n3)cc2)CC1 (stereo partly drawn) [Compound 85, 7-(((1S)-1-(4-(1-(4-acryloylpiperazin-1-yl)-2-cyclopropylethyl)phenyl)ethyl)amino)-1-isopropylpyrimidine[4,5-d]pyrimidine-2(1H)-one] | 57 ± 6% | 94 ± 3% | 60 to 90% | > 90% | > 90% | – | – | – |
| C=CC(=O)N1CCN([C@H](CC2CC2)c2ccc([C@H](C)Nc3ncc4cnc(=O)n(CC)c4n3)cc2)CC1 [Compound 114-2] | – | – | 30 to 60% | > 90% | > 90% | – | – | – |
| C=CC(=O)NC1CCN(C(CC2CC2)c2ccc([C@H](C)Nc3ncc4c(n3)N(C(C)C)C(=O)OC4)cc2)CC1 (stereo partly shown) [Compound 22] | – | – | < 30% | 60 to 90% | > 90% | – | – | – |
| C=CC(=O)N1CC2(CC([C@@H](CC3CCC3)c3ccc([C@H](C)Nc4ncc5c(n4)N(CC)C(=O)OC5)cc3)C2)C1 [Compound 1-1] | – | – | – | – | – | C (C represents an inhibition rate greater than 30% but less than or equal to 60%) | A (A represents an inhibition rate greater than 90%) | A (A represents an inhibition rate greater than 90%) |
| C=CC(=O)N1CCN([C@H](CC23CC(C2)C3)c2ccc([C@H](C)Nc3ncc4c(n3)N(CC)C(=O)NC4)cc2)CC1 [Compound 70-2] | – | – | 60 to 90% | 60 to 90% | > 90% | – | – | – |
| C=CC(=O)N1CC2(C1)CN(C(CC1CC1)c1ccc(C3(Nc4ncc5c(n4)N(CC)C(=O)OC5)CC3)cc1)C2 (stereo not shown) [Compound 26] | – | – | 30 to 60% | 60 to 90% | > 90% | – | – | – |

Source: patent US12559505B2, “IDH mutant inhibitor and use thereof” (WIGEN BIOMEDICINE TECHNOLOGY (SHANGHAI) CO., LTD., priority 2020, dated 2026)
